Legend:
Details in all cases: Table 1 kinase panel
JAK3 = biological target: T1, JAK3 (Homo sapiens, UniProt P52333); test: Kinase competition binding assay, JAK3
T1 construct: made in house
T1 sequence (P52333 1-1124): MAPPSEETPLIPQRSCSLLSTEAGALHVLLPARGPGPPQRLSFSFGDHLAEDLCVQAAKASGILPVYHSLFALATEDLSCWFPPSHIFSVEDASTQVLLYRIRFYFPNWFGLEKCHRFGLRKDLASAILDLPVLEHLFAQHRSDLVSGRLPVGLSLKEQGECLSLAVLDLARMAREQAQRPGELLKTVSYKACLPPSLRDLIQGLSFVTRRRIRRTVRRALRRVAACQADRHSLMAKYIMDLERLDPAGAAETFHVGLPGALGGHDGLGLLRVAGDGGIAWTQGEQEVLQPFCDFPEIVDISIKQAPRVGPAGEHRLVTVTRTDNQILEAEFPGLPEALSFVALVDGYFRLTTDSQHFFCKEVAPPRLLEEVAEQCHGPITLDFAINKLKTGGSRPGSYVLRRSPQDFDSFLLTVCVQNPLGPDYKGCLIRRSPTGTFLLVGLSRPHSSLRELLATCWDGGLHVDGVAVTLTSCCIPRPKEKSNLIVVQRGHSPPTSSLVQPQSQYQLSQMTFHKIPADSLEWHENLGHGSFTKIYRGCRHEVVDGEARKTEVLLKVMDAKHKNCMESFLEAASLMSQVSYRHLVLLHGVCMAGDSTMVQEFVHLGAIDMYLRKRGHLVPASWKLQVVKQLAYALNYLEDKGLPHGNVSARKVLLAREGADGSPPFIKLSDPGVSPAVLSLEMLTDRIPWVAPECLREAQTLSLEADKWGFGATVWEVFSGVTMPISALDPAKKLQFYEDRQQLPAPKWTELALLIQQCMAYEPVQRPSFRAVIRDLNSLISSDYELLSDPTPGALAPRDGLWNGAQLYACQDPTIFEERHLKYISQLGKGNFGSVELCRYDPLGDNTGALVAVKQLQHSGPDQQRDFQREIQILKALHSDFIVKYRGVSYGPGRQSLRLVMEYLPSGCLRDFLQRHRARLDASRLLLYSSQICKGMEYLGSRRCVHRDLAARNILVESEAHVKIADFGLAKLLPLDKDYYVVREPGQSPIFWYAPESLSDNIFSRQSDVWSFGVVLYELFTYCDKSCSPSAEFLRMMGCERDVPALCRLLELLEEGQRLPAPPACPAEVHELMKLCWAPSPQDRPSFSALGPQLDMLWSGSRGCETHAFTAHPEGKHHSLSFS
Description: (§1) Cannabis flavonoids and their analogs were subjected to kinase inhibition assay. The compounds were first screened at a single concentration of 10 μM in the primary assay. […]. To determine the kd or IC50 values, competition binding assays were established, authenticated and executed as described previously. Fabian et al., “A Small Molecule-Kinase Interaction Map For Clinical Kinase Inhibitors.”, Nat Biotechnol, 23(3):329-36, Epub (2005). See also, Karaman et al., “A Quantitative Analysis Of Kinase Inhibitor Selectivity”, Nat. Biotechnol. […] For most assays, kinases were fused to T7 phage strains (Fabian, supra) and for the other assays, kinases were produced in HEK-293 cells after which they were tagged with DNA for quantitative PCR detection. In general, full-length constructs were used for small, single domain kinases, and catalytic domain constructs for large multi-domain kinases. The binding assays utilized streptavidin-coated magnetic beads treated with biotinylated small molecule ligands for 30 minutes at room temperature which generated affinity resins for the kinase assays. The liganded beads were blocked with excess biotin and washed with blocking buffer (SeaBlock (Pierce), 1% BSA, 0.05% Tween 20, 1 mM DTT) to remove unbound ligand and to reduce non-specific phage binding. […] Test compounds were prepared as 40× stocks in 100% DMSO and diluted directly into the assay (Final DMSO concentration=2.5%). All reactions were performed in polypropylene 384-well plates in a final volume of 0.04 ml. […] The beads were then re-suspended in elution buffer (1×PBS, 0.05% Tween 20, 0.5 μM non-biotinylated affinity ligand) and incubated at room temperature with shaking for 30 minutes. The kinase concentration in the eluates was measured by quantitative PCR. An illustration of the kinase interaction process is presented below. Kd/IC50 values were determined using a standard dose response curve using the hill equation. Curves were fitted using a non-linear least square fit with the Levenberg-Marquardt algorithm.
(§2) The compound(s) were screened at 10 μM and results for primary screen binding interactions are reported as ‘% Ctrl’, where lower numbers indicate stronger hits in the matrix.

MEK5 = biological target: T2, MEK5 (Homo sapiens, UniProt Q13163); test: Kinase competition binding assay, MEK5
T2 construct: made in house
T2 sequence (Q13163 1-448): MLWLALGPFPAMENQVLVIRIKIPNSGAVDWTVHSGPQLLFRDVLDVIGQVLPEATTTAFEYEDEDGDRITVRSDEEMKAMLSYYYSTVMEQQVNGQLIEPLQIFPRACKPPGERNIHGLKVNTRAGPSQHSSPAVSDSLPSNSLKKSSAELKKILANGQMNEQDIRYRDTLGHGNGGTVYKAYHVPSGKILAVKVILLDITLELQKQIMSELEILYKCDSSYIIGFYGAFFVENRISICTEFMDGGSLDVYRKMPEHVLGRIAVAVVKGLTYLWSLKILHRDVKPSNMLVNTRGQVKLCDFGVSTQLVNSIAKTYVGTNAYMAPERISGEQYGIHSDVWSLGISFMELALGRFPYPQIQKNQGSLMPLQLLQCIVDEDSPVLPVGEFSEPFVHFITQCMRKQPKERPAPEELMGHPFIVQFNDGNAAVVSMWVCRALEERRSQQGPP
Description: as §1, §2

PASK = biological target: T3, PASK (Homo sapiens, UniProt Q96RG2); test: Kinase competition binding assay, PASK
T3 construct: made in house
Description: as §1, §2

PIM-1 = biological target: T4, PIM-1 (Homo sapiens, UniProt P11309); test: Kinase competition binding assay, PIM-1
T4 construct: full-length constructs were used for small, single domain kinases; T7 phage fusion (most assays) or DNA tag for qPCR (HEK-293-made kinases); made in house
Description: as §1, §2

Row | Compound | IC50 (JAK3) [nM] | IC50 (MEK5) [nM] | IC50 (PASK) [nM] | IC50 (PIM-1) [nM]
1 | COc1cc(-c2cc(=O)c3c(O)c(C/C=C(\C)CCC=C(C)C)c(O)cc3o2)ccc1O [FBL-03A] | > 20000 | 140 | > 20000 | > 20000
2 | COc1cc(-c2cc(=O)c3c(O)c(CC=C(C)C)c(O)cc3o2)ccc1O [FBL-03B] | > 1000 | > 1000 | 2060 | –
3 | COc1cc(-c2cc(=O)c3c(O)cc(O)c(C/C=C(\C)CCC=C(C)C)c3o2)ccc1O [FBL-03C] | 780 | 84 | > 20000 | > 1000
4 | COc1ccc(-c2cc(=O)c3c(O)c(C/C=C(\C)CCC=C(C)C)c(O)cc3o2)cc1OC [FBL-03D] | > 30000 | > 30000 | > 30000 | > 30000
5 | COc1cc(-c2cc(=O)c3c(O)cc(O)c(CC=C(C)C)c3o2)ccc1O [FBL-03G] | > 20000 | > 1000 | 116 | 78
